Measurements: PMC7822874, “Chemoprotective antimalarials identified through quantitative high-throughput screening of Plasmodium blood and liver stage parasites” (Scientific Reports, 2021)
Where “and” joins values, the source holds several entries; their conditions need not be identical. Identical values can stand only once. Like-named read-outs stand apart in the source and are kept apart here.

Assays:
[1] = test system: Plasmodium falciparum Dd2 asexual blood stage parasites; assay: microbe, parasite or virus in culture; set-up: species or system Plasmodium falciparum Dd2 in human erythrocytes; single determination (one 11-point concentration-response curve); settings: Plasmodium falciparum, DD2, Erythrocyte, 72 h; read-out: AC50
[2] = test system: T1, Plasmodium falciparum Dd2-attB (parental line), asexual blood stages; assay: microbe, parasite or virus in culture; set-up: replicate k of 3 (each line is one of three independent assays; the three lines of one compound and parasite line follow each other); settings: n = 1; for Individual replicates / Log AC50 (M): 72 h; for AC50: Plasmodium falciparum, DD2, 72 h, read-out: Individual replicates / Log AC50 (converted)
T1 construct: Dd2-attB, the isogenic parental line
Procedure, shortened: (§1)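 Both lines were tested side by side with selected compounds, repeated in three independent assays. Differences between parental and ScDHODH-expressing parasites were then assessed with a two-sided Student's t-test.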

[3] = test system: T2, Plasmodium falciparum Dd2-attB-ScDHODH (transgenic line expressing yeast DHODH), asexual blood stages; assay: organism not typed; set-up: replicate k of 3 (each line is one of three independent assays; the three lines of one compound and parasite line follow each other); settings: 72 h, n = 1; for AC50: read-out: Individual replicates / Log AC50 (converted)
T2 construct: Dd2-attB-ScDHODH, the transgenic line that expresses yeast DHODH
Procedure, shortened: as §1

in vitro [4] = settings: human, n = 1
[5] = test system: P. berghei-ANKA-GFP-LucCON liver stage parasites in HepG2-A16-CD81EGFP cells; assay: P. berghei liver stage Pb-Luc assay, Method 1 (UCSD, 1536-well); assay type: cell-based, Plasmodium berghei; settings: for Max Resp (signal direction of the dose response): Decrease = decreasing P. berghei viability with dose, Increase = increasing signal, Inactive = no dose response; for activity at 1 µM / activity at 3 µM: 48 h
HepG2-A16-CD81EGFP cells = settings: average of 2 wells; for HepG2 viability signal, 3 uM, repeat 2: nominal 3 uM (10 mM stock), 4.5 uM for 15 mM, 3.6 uM for 12 mM, 6 uM for 20 mM stock
in vitro [6] = settings: human, HepG2-A16-CD81EGFP cells, uninfected
[7] = test system: luciferase-expressing P. berghei liver stage parasites in HepG2 cells; assay: Inhibition of liver-stage development assay (ILSDA), Method 2 (WRAIR, 96-well); assay type: cell-based, Plasmodium berghei; settings: for Max Resp (signal direction of the dose response): Method 2, Decrease = decreasing P. berghei viability with dose, Increase = increasing signal, Inactive = no dose response; for AC50: Plasmodium berghei, HepG2, Method 2
[8] = Plasmodium berghei, nominal 1 uM (10 mM stock), […] for 15 mM, 1.2 uM for 12 mM, 2 uM for 20 mM stock, average of 2 wells, 1536-well plate, repeat 1, read-out: Pb-Luc signal, 1 uM, repeat 1
[9] = Plasmodium berghei, nominal 1 uM (10 mM stock), […] for 15 mM, 1.2 uM for 12 mM, 2 uM for 20 mM stock, average of 2 wells, 1536-well plate, repeat 2, read-out: Pb-Luc signal, 1 uM, repeat 2
[10] = Plasmodium berghei, nominal 1 uM (10 mM stock), […] for 15 mM, 1.2 uM for 12 mM, 2 uM for 20 mM stock, average of 2 wells, 1536-well plate, repeat 3, read-out: Pb-Luc signal, 1 uM, repeat 3
[11] = Plasmodium berghei, nominal 3 uM (10 mM stock), 4.5 uM for 15 mM, 3.6 uM for 12 mM, 6 uM for 20 mM stock, average of 2 wells, 1536-well plate, repeat 1, read-out: Pb-Luc signal, 3 uM, repeat 1
[12] = Plasmodium berghei, nominal 3 uM (10 mM stock), 4.5 uM for 15 mM, 3.6 uM for 12 mM, 6 uM for 20 mM stock, average of 2 wells, 1536-well plate, repeat 2, read-out: Pb-Luc signal, 3 uM, repeat 2
[13] = Plasmodium berghei, nominal 3 uM (10 mM stock), 4.5 uM for 15 mM, 3.6 uM for 12 mM, 6 uM for 20 mM stock, average of 2 wells, 1536-well plate, repeat 3, read-out: Pb-Luc signal, 3 uM, repeat 3
[14] = Plasmodium berghei, Method 1, Hill fit, 50% of maximum activity response, read-out: AC50
[15] = Plasmodium berghei, Method 1, log10 of molar AC50 from Hill fit, read-out: Log AC50 (converted)
[16] = nominal 1 uM (10 mM stock), […] for 15 mM, 1.2 uM for 12 mM, 2 uM for 20 mM stock
[17] = Plasmodium berghei, 1 uM (compounds provided at 10 mM), average of 2 wells on a 1536 well plate, column 11, read-out: Pb-Luc (P. berghei liver stage), % of control, lower concentration, first repeat
[18] = Plasmodium berghei, 1 uM (compounds provided at 10 mM), average of 2 wells on a 1536 well plate, column 12, read-out: Pb-Luc (P. berghei liver stage), % of control, lower concentration, second repeat
[19] = Plasmodium berghei, 3 uM (compounds provided at 10 mM), average of 2 wells on a 1536 well plate, column 8, read-out: Pb-Luc (P. berghei liver stage), % of control, higher concentration, first repeat
[20] = Plasmodium berghei, 3 uM (compounds provided at 10 mM), average of 2 wells on a 1536 well plate, column 9, read-out: Pb-Luc (P. berghei liver stage), % of control, higher concentration, second repeat
[21] = Hill fit, 50% of maximum activity response, read-out: AC50
[22] = log10 of molar AC50 from Hill fit, read-out: Log AC50 (converted)

Row | SMILES | AC50 [1] [µM] | Individual replicates / Log AC50 (M) [2] | AC50 [2] [µM] | Individual replicates / Log AC50 (M) [3] | CC50 at 48 h (in vitro [4]; HepG2 cells) [µM] | viability at 48 h, 1 µM (in vitro [6]) [%] | viability at 48 h, 3 µM (in vitro [6]) [%] | Max Resp (signal direction of the dose response) [7] | AC50 [7, 21] [µM] | AC50 [7, 22] [µM] | other results
1 | Oc1c(CN2CCCC2)cc(COCc2ccccc2)c2cccnc12 [NCGC00183371-01] | 6.68 | -5.2986 Log AC50 (M) and -5.1986 Log AC50 (M) | 3.99 | -4.7986 Log AC50 (M) and -5.1486 Log AC50 (M) | 8.62 | – | – | – | – | – | –
2 | Cc1nn2c(c1-c1ccccc1-c1ccccc1)N(Cc1ccc(O)cc1)CCC2 [NCGC00420512-01] | 0.485 | – | – | – | 28 | 96.5 | 112 | – | – | – | Max Resp (signal direction of the dose response) ([5]; Method 1): Decrease; activity at 1 µM [5, 8]: 76.6%; activity at 1 µM [5, 9]: 69.5%; activity at 1 µM [5, 10]: 95.1%; activity at 3 µM [5, 11]: 15.6%; activity at 3 µM [5, 12]: 15.8%; activity at 3 µM [5, 13]: 40.5%; AC50 [5, 14]: 1.58 µM; AC50 [5, 15]: 1.58 µM; HepG2 viability signal, 1 uM, repeat 2 (HepG2-A16-CD81EGFP cells; [16]): 99.38%; HepG2 viability signal, 3 uM, repeat 2 (HepG2-A16-CD81EGFP cells): 110.31%
3 | COc1ccc(CN[C@@H]2C=C[C@@H](c3c(C)nn(-c4ccc(OC)cc4)c3C)C2)cc1 [NCGC00401425-01] | 4.85 | – | – | – | 39.6 | 100 | 99.3 | – | – | – | activity at 1 µM [5, 8]: 79.1%; activity at 1 µM [5, 9]: 135%; activity at 1 µM [5, 10]: 59%; activity at 3 µM [5, 11]: 56.4%; activity at 3 µM [5, 12]: 76.7%; activity at 3 µM [5, 13]: 51.8%; HepG2 viability signal, 1 uM, repeat 2 (HepG2-A16-CD81EGFP cells; [16]): 96.20%; HepG2 viability signal, 3 uM, repeat 2 (HepG2-A16-CD81EGFP cells): 99.98%
4 | Oc1c(CN2CCCCC2)cc(COCc2ccccc2)c2cccnc12 [NCGC00052274-02] | 8.41 | -5.4486 Log AC50 (M) and -5.3486 Log AC50 (M) | 5.64 | -5.4986 Log AC50 (M) | 6.85 | – | – | – | – | – | AC50 [3]: 5.03 µM
5 | O=C(Nc1ccccc1O)c1ccc(NC(=O)C2CC2)cc1 [MLS001162082-01] | 4.73 | – | – | – | 10.9 | 114 | 108 | Decrease | 2.24 | 2.24 | activity at 1 µM [5, 17]: 40%; activity at 1 µM [5, 18]: 37%; activity at 3 µM [5, 19]: 10%; activity at 3 µM [5, 20]: 10%
6 | CN(C)C1CCN(Cc2cc(COCc3ccccc3)c3cccnc3c2O)C1 (stereo not drawn) [NCGC00183372-01] | – | -5.2486 Log AC50 (M) and -5.1486 Log AC50 (M) | 5.03 | -5.2986 Log AC50 (M) and -5.1986 Log AC50 (M) and -4.7986 Log AC50 (M) | 21.7 | – | – | – | – | – | –
7 | CC1=C[C@@H](CNCc2cccnc2)[C@H](C(C)C)C[C@H]1Cc1nnc(-c2ccc([N+](=O)[O-])cc2)o1 [NCGC00394797-01] | 5.31 | – | – | – | – | – | – | Decrease | 0.562 | 0.562 | activity at 1 µM [5, 8]: 72%; activity at 1 µM [5, 9]: 75%; activity at 1 µM [5, 10]: 71.6%; activity at 3 µM [5, 11]: 23.8%; activity at 3 µM [5, 12]: 19.3%; activity at 3 µM [5, 13]: 23.7%; AC50 [5, 14]: 1.58 µM; AC50 [5, 15]: 1.58 µM; HepG2 viability signal, 1 uM, repeat 1 (HepG2-A16-CD81EGFP cells; nominal 1 uM (10 mM stock), […] for 15 mM, 1.2 uM for 12 mM, 2 uM for 20 mM stock, repeat 1): 104.31%; HepG2 viability signal, 1 uM, repeat 2 (HepG2-A16-CD81EGFP cells; [16]): 102.23%; HepG2 viability signal, 3 uM, repeat 2 (HepG2-A16-CD81EGFP cells): 86.98%; CC50 at 48 h (in vitro [4]; hepg2): 24.3 µM
8 | Oc1c(C(Nc2nccs2)c2ccc(C(F)(F)F)cc2)ccc2cccnc12 (stereo not drawn) [MLS000774842-01] | 5.31 | – | – | – | 15.3 | – | – | Decrease | 0.282 | 0.282 | –
9 | O=C(NC(c1ccccc1)c1cc(Cl)c2cccnc2c1O)c1cccnc1 (stereo not drawn) [MLS000573359-01] | 7.5 | – | – | – | 13.7 | 119 | 66 | Decrease | 1.12 | 1.12 | –
10 | Oc1c(CNc2ccccc2)cc(COCc2ccccc2)c2cccnc12 [NCGC00183370-01] | – | -5.0486 Log AC50 (M) | 11.3 | -4.7986 Log AC50 (M) | 21.7 | – | – | – | – | – | AC50 [3]: 14.2 µM
11 | O=C(Nc1ccc(Br)cc1)c1ccc(F)c([S+](=O)([O-])NC2CCCCCC2)c1 [NCGC00139407-01] | 9.44 | – | – | – | 13.7 | – | – | Decrease | 0.631 | 0.631 | Max Resp (signal direction of the dose response) ([5]; Method 1): Decrease; AC50 ([5]; Method 1, Hill fit, 50% of maximum activity response, read-out: AC50): 1.12 µM; Log AC50 (M) ([5]; Method 1, log10 of molar AC50 from Hill fit): -5.950 M; AC50 [5, 14]: 0.562 µM; AC50 [5, 15]: 0.562 µM
12 | O=c1cc(CSc2ccc(Cl)cc2)nc(-c2ccccn2)[nH]1 [MLS001166297-01] | 5.96 | – | – | – | 12.2 | 92 | 73 | Inactive | – | – | activity at 1 µM [5, 17]: 17%; activity at 1 µM [5, 18]: 15%; activity at 3 µM [5, 19]: 8%; activity at 3 µM [5, 20]: 5%
